From US11730720B2, “ALK5 inhibitors” (THERAVANCE BIOPHARMA R&D IP, LLC, priority 2018, dated 2023)

What was measured:
[1] = target: T1, recombinant human ALK5 (TGF-βR1) protein (Homo sapiens, UniProt P36897); experiment: Biochemical ALK5 (TGF-βR1) assay to measure pKi (LANCE Ultra ULight kinase assay); conditions: apparent pKi, converted from pIC50 using the Cheng-Prusoff equation
T1 construct: purchased Life Technologies PR9075A
T1 sequence (P36897 34-503): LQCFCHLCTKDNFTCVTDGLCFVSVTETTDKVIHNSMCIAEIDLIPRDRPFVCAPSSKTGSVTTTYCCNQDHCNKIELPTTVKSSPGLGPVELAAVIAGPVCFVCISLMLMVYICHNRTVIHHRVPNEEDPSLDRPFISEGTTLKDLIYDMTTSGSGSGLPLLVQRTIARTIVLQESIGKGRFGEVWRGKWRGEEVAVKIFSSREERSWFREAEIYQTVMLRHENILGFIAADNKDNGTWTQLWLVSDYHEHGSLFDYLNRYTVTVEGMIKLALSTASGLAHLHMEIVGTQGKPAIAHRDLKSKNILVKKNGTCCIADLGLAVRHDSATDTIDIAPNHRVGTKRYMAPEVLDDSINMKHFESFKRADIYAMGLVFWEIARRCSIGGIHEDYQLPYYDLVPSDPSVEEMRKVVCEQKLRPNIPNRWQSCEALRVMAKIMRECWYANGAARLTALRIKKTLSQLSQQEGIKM
Experimental: Example 254: Biochemical ALK5 (TGF-βR1) Assay to Measure pKi
The assays were performed in a 384-well plate (24 columns×16 wells/rows). An Echo® 550 Liquid Handler (Labcyte) was used to prepare various intermediate concentrations of compounds of the present disclosure in 100% DMSO. From the intermediate concentrations, a range of concentrations (from 10 μM to 25 pM corresponding to volumes up to 105 nL) were prepared and ejected into a final assay plate to be used to create individual dose response curves for each of the subject compounds. To a separate column within the assay plate, 105 nL of DMSO in each well was used to establish a maximum assay signal. Additionally, 105 nL of 100 μM SD-208, a selective TGF-βR1 inhibitor (Catalog #S7624, Selleck Chemicals), was used in another column of wells to establish a minimal assay signal.
With a multidrop dispenser, 8 μL of enzyme mixture (1.25× final) was added to each well. The enzyme mixture consisted of 250 pM ALK5 enzyme and 62.5 nM peptide substrate (LANCE® (lanthanide chelate excite) Ultra ULight™-DNA Topoisomerase 2-alpha (Thr1342)) prepared in assay buffer (50 mM HEPES, 10 mM MgCl2, 1 mM EGTA, 0.01% Tween-20, pH 7.5 at room temperature) with 2 mM DTT added prior to use. The plate was then sealed with an adhesive seal and allowed to equilibrate for 60 minutes at room temperature.
Next, 2 μL of 125 μM ATP (5× final, 125 μM ATP prepared in assay buffer with 2 mM DTT) was added to the incubated mixtures, covered with a MicroClime® Environmental Lid (Product No. LLS-0310, Labcyte) and immediately transferred to 37° C. The reactions were allowed to proceed at 37° C. for 60 minutes before terminating with the addition of 10 μL of detection antibody (LANCE® (lanthanide chelate excite) Ultra Europium-anti-phospo-DNA Topoisomerase 2-alpha (Thr1342)) in detection mixture (12 mM EDTA, 4 nM detection antibody prepared in detection buffer (50 mM Tris-HCl, 150 mM NaCl, 0.5% BSA (Fraction V), pH 7.0)) at room temperature. The plate was then read on a Perkin Elmer EnVision Plate Reader using europium specific reader settings with excitation and emission wavelengths set to 320 or 340 nm and 665 nm, respectively.
For dose-response analyses, percent inhibition versus compound concentrations were plotted, and pIC50 values were determined from a 4-parameter robust fit model with GraphPad Prism V5 Software (GraphPad Software, Inc., La Jolla, Calif.). This model obtains pIC50 values by fitting the sigmodial dose-response (variable slope) equation to the data. Results were expressed as pIC50 (negative logarithm of IC50) and subsequently converted to pKi (negative logarithm of dissociate constant, K) using the Cheng-Prusoff equation.
The higher the value of pKi (lower value of Ki), the greater the inhibition of ALK5 activity.

[2] = test system: TGF-β-stimulated SMAD3 phosphorylation in BEAS-2B cells; experiment: Cellular ALK5 potency assay, inhibition of TGF-β stimulated pSMAD3 formation in BEAS-2B cells; format: cell-based; conditions: Homo sapiens, inhibition of TGF-β (10 ng/mL) stimulated pSMAD3 formation, 1 hour compound incubation, read-out: BEAS2B pIC50 (converted)
Experimental: Example 255: Cellular ALK5 Potency Assay to Measure pIC50, Inhibition of TGF-β Stimulated pSMAD3 Formation in BEAS-2B Cells
The potency of compounds of the present disclosure for inhibition of TGF-β-stimulated SMAD3 phosphorylation was measured in BEAS-2B cells, a human lung epithelial cell line. TGF-β signals through activin receptor-like kinase 5 (ALK5) immediately prior to SMAD3 phosphorylation.
BEAS-2B cells were grown using 50% DMEM (Life Technologies) and 50% F-12 (Life Technologies) media, supplemented with 10% Fetal Bovine Serum (ATCC), 25 mM HEPES (Life Technologies), and 1×Pen-Strep (Life Technologies). Cells were cultured in a humidified incubator set at 37° C., 5% CO2, and trypsonized using 0.25% Trypsin with 0.5% polyvinylpyrrolidone (PVP).
For the assay, BEAS-2B cells were seeded at 7,500 cells/well (25 μL/well) in a 384-well plate and cultured overnight. Before dosing, growth media was aspirated and the wells were rinsed with HBSS Buffer (HBSS with Calcium and Magnesium, Life Technologies) supplemented with 25 mM HEPES (Life Technologies) and 1% Bovine Serum Albumin (Roche). Compounds were serially diluted in DMSO, then further diluted with supplemented HBSS Buffer (50 μL/well) to create a compound plate 3× of the final assay concentration, at 0.3% DMSO. The diluted compounds were then added to the cells (8 μL/well) and incubated at 37° C., 5% CO2 for 1 hour. After the compound incubation, TGF-β (R&D Systems) reconstituted in supplemented HBSS Buffer was added to the cells ([…], final concentration 10 ng/mL) and incubated for a further 30 minutes, after which the cells were immediately lysed with AlphaLISA lysis buffer (PerkinElmer). AlphaLISA Acceptor and Detector beads (PerkinElmer) were added 2 hours apart, then incubated overnight to be read the next day. The potency of the compound was determined through analysis of dose-dependent quantified changes in pSMAD3 signal from baseline (non-compound treated TGF-β stimulated cells). Data are expressed as pIC50 (negative decadic logarithm IC50) values.

| SMILES | Ki [1] [nM] | IC50 [2] [nM] |
| --- | --- | --- |
| CN(C)C1CCN(c2cnc3ccc(-c4c[nH]nc4-c4cc(Cl)ccc4F)nc3c2)C1 (racemic) [Compound 1-34, rac-(3S)-1-[6-[3-(5-chloro-2-fluoro-phenyl)-1H-pyrazol-4-yl]-1,5-naphthyridin-3-yl]-N,N-dimethyl-pyrrolidin-3-amine] | ≤ 0.0316 | 25.1 to 158 |
| Fc1ccc(Cl)cc1-c1n[nH]cc1-c1ccc2ncc(N3CCC(N4CCCCC4)C3)cc2n1 (racemic) [Compound 1-39, 2-[3-(5-chloro-2-fluoro-phenyl)-1H-pyrazol-4-yl]-7-[rac-(3R)-3-(1-piperidyl)pyrrolidin-1-yl]-1,5-naphthyridine] | 0.0398 to 0.316 | ≤ 20 |
| CN1C[C@H]2C[C@@H]1CN2c1cnc2ccc(-c3c[nH]nc3-c3cc(Cl)ccc3F)nc2c1 (racemic) [Compound 1-42, 2-[3-(5-chloro-2-fluoro-phenyl)-1H-pyrazol-4-yl]-7-[rac-(1R,4R)-5-methyl-2,5-diazabicyclo[2.2.1]heptan-2-yl]-1,5-naphthyridine] | 3.98 to 31.6 | 25.1 to 158 |
| NC(=O)C1CN(c2cnc3ccc(-c4c[nH]nc4-c4cc(Cl)ccc4F)nc3c2)CCN1 (racemic) [Compound 1-50, rac-(2S)-4-[6-[3-(5-chloro-2-fluoro-phenyl)-1H-pyrazol-4-yl]-1,5-naphthyridin-3-yl]piperazine-2-carboxamide] | 0.398 to 3.16 | 25.1 to 158 |
| CNC(=O)C1CN(c2cnc3ccc(-c4c[nH]nc4-c4cc(Cl)ccc4F)nc3c2)CCN1 (racemic) [Compound 1-51, rac-(2R)-4-[6-[3-(5-chloro-2-fluoro-phenyl)-1H-pyrazol-4-yl]-1,5-naphthyridin-3-yl]-N-methyl-piperazine-2-carboxamide] | 0.0398 to 0.316 | 25.1 to 158 |
| C[C@@H]1CN(c2cnc3ccc(-c4c[nH]nc4-c4cc(Cl)ccc4F)nc3c2)[C@H](C)CN1C (racemic) [Compound 1-75, 2-[3-(5-chloro-2-fluoro-phenyl)-1H-pyrazol-4-yl]-7-[rac-(2R,5R)-2,4,5-trimethylpiperazin-1-yl]-1,5-naphthyridine] | 3.98 to 31.6 | 25.1 to 158 |
| CNC(=O)C1CN(c2cnc3ccc(-c4c[nH]nc4-c4cc(Cl)ccc4F)nc3c2)CCN1C (racemic) [Compound 1-77, rac-(2R)-4-[6-[3-(5-chloro-2-fluoro-phenyl)-1H-pyrazol-4-yl]-1,5-naphthyridin-3-yl]-N,1-dimethyl-piperazine-2-carboxamide] | 0.0398 to 0.316 | 25.1 to 158 |
| CNC(=O)C1CN(c2cnc3ccc(-c4c[nH]nc4-c4cc(Cl)ccc4F)nc3c2)CCN1C(C)C (racemic) [Compound 1-78, rac-(2R)-4-[6-[3-(5-chloro-2-fluoro-phenyl)-1H-pyrazol-4-yl]-1,5-naphthyridin-3-yl]-1-isopropyl-N-methyl-piperazine-2-carboxamide] | 0.0398 to 0.316 | 25.1 to 158 |
| CN1CCC(N(C)c2cnc3ccc(-c4c[nH]nc4-c4cc(Cl)ccc4F)nc3c2)C1 (racemic) [Compound 1-79, 6-[3-(5-chloro-2-fluoro-phenyl)-1H-pyrazol-4-yl]-N-methyl-N-[rac-(3R)-1-methylpyrrolidin-3-yl]-1,5-naphthyridin-3-amine] | 0.0398 to 0.316 | ≤ 20 |
| COCC1CN(c2cnc3ccc(-c4c[nH]nc4-c4cc(Cl)ccc4F)nc3c2)CCN1C (racemic) [Compound 1-80, 2-[3-(5-chloro-2-fluoro-phenyl)-1H-pyrazol-4-yl]-7-[rac-(3R)-3-(methoxymethyl)-4-methyl-piperazin-1-yl]-1,5-naphthyridine] | 0.398 to 3.16 | 25.1 to 158 |
| CNC(=O)C1CN(c2cnc3ccc(-c4c[nH]nc4-c4cc(Cl)ccc4F)nc3c2)CCN1C (racemic) [Compound 1-81, rac-(2S)-4-[6-[3-(5-chloro-2-fluoro-phenyl)-1H-pyrazol-4-yl]-1,5-naphthyridin-3-yl]-N,1-dimethyl-piperazine-2-carboxamide] | 0.398 to 3.16 |  |
| CC(C)N1CCCN(c2cnc3ccc(-c4c[nH]nc4-c4cc(Cl)ccc4F)nc3c2)CC1C (racemic) [Compound 1-82, 2-[3-(5-chloro-2-fluoro-phenyl)-1H-pyrazol-4-yl]-7-[rac-(3S)-4-isopropyl-3-methyl-1,4-diazepan-1-yl]-1,5-naphthyridine] | 0.398 to 3.16 | 25.1 to 158 |
| CN(C)C1CCN(c2cnc3ccc(-c4nc[nH]c4-c4cc(Cl)ccc4F)nc3c2)C1 (racemic) [Compound 2-11, rac-(3S)-1-(6-[5-(5-chloro-2-fluoro-phenyl)-1H-imidazol-4-yl]-1,5-naphthyridin-3-yl]-N,N-dimethyl-pyrrolidin-3-amine] | 0.0398 to 0.316 | ≤ 20 |
| CN(C)C1CCN(c2cnc3ccc(-c4c(-c5cc(Cl)ccc5F)nc5ccccn45)nc3c2)C1 (racemic) [Compound 3-4, rac-(3S)-1-[6-[2-(5-chloro-2-fluoro-phenyl)imidazo[1,2-a]pyridin-3-yl]-1,5-naphthyridin-3-yl]-N,N-dimethyl-pyrrolidin-3-amine] | 0.0398 to 0.316 | 200 to 1260 |
| Fc1cc(F)c(-c2n[nH]cc2-c2ccc3ncc(N4CCC(N5CCCCC5)C4)cc3n2)cc1Cl (racemic) [Compound 6-21, 2-[3-(5-chloro-2,4-difluoro-phenyl)-1H-pyrazol-4-yl]-7-[rac-(3R)-3-(1-piperidyl)pyrrolidin-1-yl]-1,5-naphthyridine] | 0.0398 to 0.316 | 25.1 to 158 |
| CN(C)C1CCN(c2cnc3ccc(-c4c[nH]nc4-c4cc(Cl)c(F)cc4F)nc3c2)C1 (racemic) [Compound 6-22, rac-(3S)-1-[6-[3-(5-chloro-2,4-difluoro-phenyl)-1H-pyrazol-4-yl]-1,5-naphthyridin-3-yl]-N,N-dimethyl-pyrrolidin-3-amine] | 0.0398 to 0.316 | 25.1 to 158 |
